Reference: PubChem BioAssay AID328 (DTP/NCI, 2004)
Where “and” joins values, the source holds several entries; their conditions need not be identical. Equal values may be shown once. Toxic doses and inconclusive results are not listed. The calls were made as follows: active = survival T/C of 150% or more; inactive = T/C below 125% in these data.

System: BDF1 mice, P388 leukemia ip, median survival T/C
Assay: NCI In Vivo Anticancer Drug Screen. Data for tumor model P388 Leukemia (intraperitoneal) in B6D2F1 (BDF1) mice
Conditions: endpoint: median survival time, higher = longer survival
In short: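 Mice carrying the transplantable tumour receive compound or vehicle. Survival is followed in each arm, and the treated measure is divided by the vehicle measure.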

[1] = dose: 50.0 mg/kg/injection, schedule: Q01DX009 (ip), vehicle: saline with Tween-80
[2] = dose: 100.0 mg/kg/injection, schedule: Q01DX009 (ip), vehicle: saline with Tween-80
[3] = dose: 50.0 mg/kg/injection, schedule: Q04DX003 (ip), vehicle: saline
[4] = dose: 100.0 mg/kg/injection, schedule: Q01DX009 (ip), vehicle: saline
[5] = dose: 100.0 mg/kg/injection, schedule: Q04DX003 (ip), vehicle: saline
[6] = dose: 200.0 mg/kg/injection, schedule: Q01DX009 (ip), vehicle: saline
[7] = dose: 200.0 mg/kg/injection, schedule: Q04DX003 (ip), vehicle: saline
[8] = dose: 25.0 mg/kg/injection, schedule: Q01DX009 (ip), vehicle: saline with Tween-80
[9] = dose: 100.0 mg/kg/injection, schedule: Q04DX003 (ip), vehicle: Klucel (hydroxypropylcellulose) (HPC)

Measured: T/C

CS(=O)(=O)OCCN(CCOS(C)(=O)=O)c1cccc(Cl)c1
inactive: dose: 1.0 mg/kg/injection, schedule: Q04DX003 (ip), vehicle: saline with Tween-80 100 % of control | dose: 2.0 mg/kg/injection, schedule: Q04DX003 (ip), vehicle: saline with Tween-80 100 % of control | dose: 6.25 mg/kg/injection, schedule: Q04DX003 (ip), vehicle: saline 110 % of control | dose: 25.0 mg/kg/injection, schedule: Q01DX009 (ip), vehicle: other 95 % of control | dose: 50.0 mg/kg/injection, schedule: Q04DX003 (ip), vehicle: other 90 % of control | dose: 75.0 mg/kg/injection, schedule: Q04DX003 (ip), vehicle: other 90 % of control
active: dose: 4.0 mg/kg/injection, schedule: Q04DX003 (ip), vehicle: saline with Tween-80 172 % of control | dose: 6.25 mg/kg/injection, schedule: Q01DX009 (ip), vehicle: other 163 % of control | dose: 8.0 mg/kg/injection, schedule: Q04DX003 (ip), vehicle: saline with Tween-80 177 % of control | dose: 12.5 mg/kg/injection, schedule: Q01DX009 (ip), vehicle: Klucel (hydroxypropylcellulose) (HPC) 168 % of control | dose: 12.5 mg/kg/injection, schedule: Q01DX009 (ip), vehicle: other 200 % of control | dose: 18.7 mg/kg/injection, schedule: Q01DX009 (ip), vehicle: Klucel (hydroxypropylcellulose) (HPC) 186 % of control | dose: 22.0 mg/kg/injection, schedule: Q04DX003 (ip), vehicle: other 240 % of control

c1ccc2c(c1)nnn2OC1CCCC1
inactive: [1] 106 % of control | [2] 116 % of control | dose: 200.0 mg/kg/injection, schedule: Q01DX009 (ip), vehicle: saline with Tween-80 119 % of control

COc1cccc2c1C(=O)c1c(O)c3c(c(O)c1C2=O)C[C@@](O)(/C(C)=N/NC(=O)c1ccc(N(C)C)cc1)C[C@@H]3OC1CC(N)C(O)C(C)O1 (stereo partly specified)
active: dose: 2.0 mg/kg/injection, schedule: Q01DX009 (ip), vehicle: water 233 % of control and 154 % of control | dose: 4.0 mg/kg/injection, schedule: Q01DX009 (ip), vehicle: water 179 % of control | dose: 8.0 mg/kg/injection, schedule: Q01DX009 (ip), vehicle: water 243 % of control
inactive: dose: 0.25 mg/kg/injection, schedule: Q01DX009 (ip), vehicle: water 96 % of control | dose: 1.0 mg/kg/injection, schedule: Q01DX009 (ip), vehicle: water 107 % of control and 110 % of control

O=C(O)CCCl
inactive: [3] 104 % of control | [4] 91 % of control | [5] 104 % of control | [6] 95 % of control | [7] 100 % of control

COc1ccc(NC(=S)N(CCC#N)C2CCCCC2)cc1
inactive: dose: 6.25 mg/kg/injection, schedule: Q01DX009 (ip), vehicle: saline with Tween-80 86 % of control | dose: 12.5 mg/kg/injection, schedule: Q01DX009 (ip), vehicle: saline with Tween-80 100 % of control | [8] 104 % of control | [1] 95 % of control

O=[N+]([O-])c1ccc(/C=C/c2ncccn2)o1
inactive: [9] 100 % of control | dose: 200.0 mg/kg/injection, schedule: Q04DX003 (ip), vehicle: Klucel (hydroxypropylcellulose) (HPC) 100 % of control | dose: 400.0 mg/kg/injection, schedule: Q04DX003 (ip), vehicle: Klucel (hydroxypropylcellulose) (HPC) 100 % of control

CC(Br)C(=O)NC(Cc1ccccc1)C(=O)O (stereo unspecified)
inactive: [4] 95 % of control | dose: 100.0 mg/kg/injection, schedule: Q04DX003 (ip), vehicle: alcohol 100 % of control | dose: 100.0 mg/kg/injection, schedule: Q04DX003 (ip), vehicle: saline with Tween-80 118 % of control | [6] 100 % of control | dose: 200.0 mg/kg/injection, schedule: Q04DX003 (ip), vehicle: alcohol 104 % of control | dose: 200.0 mg/kg/injection, schedule: Q04DX003 (ip), vehicle: saline with Tween-80 100 % of control | dose: 400.0 mg/kg/injection, schedule: Q01DX009 (ip), vehicle: saline 104 % of control | dose: 400.0 mg/kg/injection, schedule: Q04DX003 (ip), vehicle: alcohol 109 % of control | dose: 400.0 mg/kg/injection, schedule: Q04DX003 (ip), vehicle: saline with Tween-80 109 % of control

C[C@@H]1C[C@@H]([C@@H](CC2CC(=O)NC(=O)C2)OC(=O)CC(=O)c2ccccc2)C(=O)[C@@H](C)C1
active: [8] 165 % of control | dose: 37.5 mg/kg/injection, schedule: Q01DX009 (ip), vehicle: saline with Tween-80 160 % of control
inactive: dose: 11.0 mg/kg/injection, schedule: Q01DX009 (ip), vehicle: saline with Tween-80 120 % of control | dose: 25.0 mg/kg/injection, schedule: Q04DX003 (ip), vehicle: saline with Tween-80 109 % of control | [1] 95 % of control | dose: 50.0 mg/kg/injection, schedule: Q04DX003 (ip), vehicle: saline with Tween-80 118 % of control

BrCc1c(CBr)c(CBr)c(CBr)c(CBr)c1CBr
inactive: dose: 25.0 mg/kg/injection, schedule: Q01DX009 (ip), vehicle: Klucel (hydroxypropylcellulose) (HPC) 95 % of control | dose: 25.0 mg/kg/injection, schedule: Q04DX003 (ip), vehicle: Klucel (hydroxypropylcellulose) (HPC) 109 % of control | dose: 50.0 mg/kg/injection, schedule: Q01DX009 (ip), vehicle: Klucel (hydroxypropylcellulose) (HPC) 100 % of control | dose: 50.0 mg/kg/injection, schedule: Q04DX003 (ip), vehicle: Klucel (hydroxypropylcellulose) (HPC) 100 % of control | dose: 100.0 mg/kg/injection, schedule: Q01DX009 (ip), vehicle: Klucel (hydroxypropylcellulose) (HPC) 109 % of control | [9] 95 % of control

CCSC(C(OC(C)=O)C(OC(C)=O)C(OC(C)=O)C(COC(C)=O)OC(C)=O)n1cnc2c(=S)nc[nH]c21 (stereo unspecified)
inactive: dose: 12.5 mg/kg/injection, schedule: Q01DX005 (ip), vehicle: saline with Tween-80 98 % of control | dose: 25.0 mg/kg/injection, schedule: Q01DX005 (ip), vehicle: saline with Tween-80 95 % of control

CCc1ccc(C2=C(O)C(=O)C(c3ccccc3)=C(O)C2=O)cc1
inactive: dose: 12.5 mg/kg/injection, schedule: Q01DX010 (ip), vehicle: saline 109 % of control
active: dose: 50.0 mg/kg/injection, schedule: Q01DX010 (ip), vehicle: saline 159 % of control

CCCC(=O)OCc1ccc(Cl)c(Cl)c1
inactive: [8] 100 % of control | [1] 108 % of control | [2] 112 % of control

Nc1ccc(OCCNS(=O)(=O)c2cccc(S(=O)(=O)F)c2)c(Cl)c1
inactive: dose: 25.0 mg/kg/injection, schedule: Q01DX009 (ip), vehicle: saline 107 % of control | dose: 50.0 mg/kg/injection, schedule: Q01DX009 (ip), vehicle: saline 104 % of control | [3] 103 % of control | [4] 114 % of control | [5] 103 % of control | [6] 105 % of control | [7] 103 % of control | dose: 400.0 mg/kg/injection, schedule: Q04DX003 (ip), vehicle: saline 100 % of control

CS(=O)(=O)Nc1ccc(Nc2c3ccccc3nc3cc(N)ccc23)cc1
inactive: dose: 1.87 mg/kg/injection, schedule: Q01DX009 (ip), vehicle: saline 111 % of control | dose: 2.5 mg/kg/injection, schedule: Q01DX009 (ip), vehicle: saline 97 % of control
active: dose: 0.22 mg/kg/injection, schedule: Q01DX009 (ip), vehicle: saline 205 % of control | dose: 0.33 mg/kg/injection, schedule: Q01DX009 (ip), vehicle: saline 205 % of control | dose: 0.44 mg/kg/injection, schedule: Q04DX003 (ip), vehicle: saline 159 % of control | dose: 0.5 mg/kg/injection, schedule: Q01DX009 (ip), vehicle: saline 222 % of control | dose: 0.56 mg/kg/injection, schedule: Q01DX009 (ip), vehicle: saline 222 % of control | dose: 0.66 mg/kg/injection, schedule: Q04DX003 (ip), vehicle: saline 168 % of control | dose: 0.75 mg/kg/injection, schedule: Q01DX009 (ip), vehicle: saline 253 % of control | dose: 0.83 mg/kg/injection, schedule: Q01DX009 (ip), vehicle: saline 275 % of control | dose: 1.0 mg/kg/injection, schedule: Q04DX003 (ip), vehicle: saline 154 % of control | dose: 1.25 mg/kg/injection, schedule: Q01DX009 (ip), vehicle: saline 268 % of control and 271 % of control | dose: 1.5 mg/kg/injection, schedule: Q04DX003 (ip), vehicle: saline 190 % of control | dose: 2.9 mg/kg/injection, schedule: Q04DX003 (ip), vehicle: saline 245 % of control | dose: 4.4 mg/kg/injection, schedule: Q04DX003 (ip), vehicle: saline 168 % of control | dose: 6.6 mg/kg/injection, schedule: Q04DX003 (ip), vehicle: saline 281 % of control | dose: 10.0 mg/kg/injection, schedule: Q04DX003 (ip), vehicle: saline 195 % of control
